Measurements: ChEMBL document CHEMBL5625226, “Synthesis, computational and experimental pharmacological studies for (thio)ether-triazine 5-HT6R ligands with noticeable action on AChE/BChE and chalcogen-dependent intrinsic activity in search for new class of drugs against Alzheimer's disease” (Eur J Med Chem, 2023)

Columns and labels:
[1] = biological target: Acetylcholinesterase (Electrophorus electricus, UniProt O42275)
Description: Inhibition of electric eel AChE using acetylthiocholine iodide as substrate preincubated with compounds for 20 mins followed by substrate addition and measured after 5 mins by Ellman's method

[2] = test system: SH-SY5Y; assay: cells; settings: Homo sapiens, 1 h
Description: Neuroprotective activity against H202 induced oxidative stress in human SH-SY5Y cells measured after 1 hr by DCFH-DA staining based analysis

[3] = test system: HepG2; assay: cells; settings: Homo sapiens, HepG2, 1 h
Description: Neuroprotective activity against H202 induced oxidative stress in human HepG2 cells measured after 1 hr by DCFH-DA staining based analysis

[4] = biological target: Cholinesterase (Equus caballus, UniProt P81908)
Description: Inhibition of equine serum BChE using butyrylthiocholine iodide as substrate preincubated for 20 mins followed by substrate addition and measured after 5 mins by Ellman's method

[5] = biological target: T1, 5-hydroxytryptamine receptor 6 (Homo sapiens, UniProt P50406); assay: biochemical
[6] = biological target: 5-hydroxytryptamine receptor 7 (Homo sapiens, UniProt P34969); assay: biochemical
[7] = biological target: 5-hydroxytryptamine receptor 2A (Homo sapiens, UniProt P28223); assay: biochemical
[8] = biological target: D(2) dopamine receptor (Homo sapiens, UniProt P14416); assay: biochemical
[9] = biological target: T1, 5-hydroxytryptamine receptor 6; settings: 1321N1, filed as antagonist, dose 10.0 mM, time 30.0 min
[10] = cells; settings: Rattus norvegicus, Whole blood cell, 0.05 h
Description: Antiplatelet activity against rat whole blood assessed as inhibition of collagen induced platelet aggregation measured after 3 mins

Chain of 5-hydroxytryptamine receptor 7 (P34969 whole entry): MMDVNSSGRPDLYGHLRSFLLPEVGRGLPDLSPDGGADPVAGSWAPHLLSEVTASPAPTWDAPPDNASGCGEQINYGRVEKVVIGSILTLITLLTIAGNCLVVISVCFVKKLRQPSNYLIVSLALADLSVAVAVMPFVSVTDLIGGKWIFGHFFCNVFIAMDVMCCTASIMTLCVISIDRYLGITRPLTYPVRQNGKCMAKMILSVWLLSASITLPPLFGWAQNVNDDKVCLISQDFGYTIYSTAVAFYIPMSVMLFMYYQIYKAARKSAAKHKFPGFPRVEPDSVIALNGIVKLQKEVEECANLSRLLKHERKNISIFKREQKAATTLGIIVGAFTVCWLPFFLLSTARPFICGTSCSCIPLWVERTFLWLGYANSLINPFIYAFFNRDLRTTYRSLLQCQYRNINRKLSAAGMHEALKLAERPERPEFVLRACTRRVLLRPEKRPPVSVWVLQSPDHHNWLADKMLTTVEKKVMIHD
Chain of 5-hydroxytryptamine receptor 2A (P28223 whole entry): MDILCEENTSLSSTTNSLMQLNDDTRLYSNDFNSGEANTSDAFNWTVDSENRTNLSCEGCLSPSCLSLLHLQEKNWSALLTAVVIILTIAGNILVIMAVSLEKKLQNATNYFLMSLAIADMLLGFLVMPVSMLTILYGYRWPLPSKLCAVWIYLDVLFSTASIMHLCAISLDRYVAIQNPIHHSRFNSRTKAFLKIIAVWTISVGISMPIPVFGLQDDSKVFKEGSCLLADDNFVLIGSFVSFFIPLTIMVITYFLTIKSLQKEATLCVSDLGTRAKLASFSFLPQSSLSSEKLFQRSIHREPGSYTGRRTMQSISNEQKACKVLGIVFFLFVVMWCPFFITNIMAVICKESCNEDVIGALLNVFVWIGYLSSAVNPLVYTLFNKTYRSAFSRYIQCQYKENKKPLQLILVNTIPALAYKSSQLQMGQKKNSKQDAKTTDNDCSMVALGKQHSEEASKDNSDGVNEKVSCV
T1 sequence (P50406 whole entry): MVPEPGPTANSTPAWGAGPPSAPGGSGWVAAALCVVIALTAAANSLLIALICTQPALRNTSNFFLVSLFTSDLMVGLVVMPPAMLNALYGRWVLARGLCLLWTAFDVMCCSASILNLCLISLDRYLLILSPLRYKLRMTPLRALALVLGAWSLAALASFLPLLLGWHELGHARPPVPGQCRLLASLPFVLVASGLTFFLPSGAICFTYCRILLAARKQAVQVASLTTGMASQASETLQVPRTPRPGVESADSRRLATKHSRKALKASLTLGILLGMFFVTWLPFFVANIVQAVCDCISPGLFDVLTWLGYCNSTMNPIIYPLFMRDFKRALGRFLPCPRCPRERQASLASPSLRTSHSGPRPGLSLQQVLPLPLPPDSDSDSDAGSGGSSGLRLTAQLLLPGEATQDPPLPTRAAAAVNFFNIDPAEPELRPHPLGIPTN
Chain of Cholinesterase (P81908 whole entry): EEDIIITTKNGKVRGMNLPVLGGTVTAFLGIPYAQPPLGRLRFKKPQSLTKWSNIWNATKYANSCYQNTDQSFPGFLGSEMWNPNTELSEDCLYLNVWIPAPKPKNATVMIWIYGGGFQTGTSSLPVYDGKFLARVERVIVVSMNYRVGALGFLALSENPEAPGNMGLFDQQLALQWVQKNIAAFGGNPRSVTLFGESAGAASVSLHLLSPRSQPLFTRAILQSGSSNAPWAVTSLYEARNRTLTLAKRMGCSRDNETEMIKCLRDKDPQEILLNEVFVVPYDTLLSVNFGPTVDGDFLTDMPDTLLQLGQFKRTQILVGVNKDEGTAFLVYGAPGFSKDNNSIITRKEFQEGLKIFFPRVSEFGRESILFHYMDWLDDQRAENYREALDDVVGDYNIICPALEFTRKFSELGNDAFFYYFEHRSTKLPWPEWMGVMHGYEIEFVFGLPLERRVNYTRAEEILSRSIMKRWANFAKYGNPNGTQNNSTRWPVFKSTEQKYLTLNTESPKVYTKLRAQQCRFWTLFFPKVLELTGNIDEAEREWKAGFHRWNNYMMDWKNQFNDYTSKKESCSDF
Chain of Acetylcholinesterase (O42275 whole entry): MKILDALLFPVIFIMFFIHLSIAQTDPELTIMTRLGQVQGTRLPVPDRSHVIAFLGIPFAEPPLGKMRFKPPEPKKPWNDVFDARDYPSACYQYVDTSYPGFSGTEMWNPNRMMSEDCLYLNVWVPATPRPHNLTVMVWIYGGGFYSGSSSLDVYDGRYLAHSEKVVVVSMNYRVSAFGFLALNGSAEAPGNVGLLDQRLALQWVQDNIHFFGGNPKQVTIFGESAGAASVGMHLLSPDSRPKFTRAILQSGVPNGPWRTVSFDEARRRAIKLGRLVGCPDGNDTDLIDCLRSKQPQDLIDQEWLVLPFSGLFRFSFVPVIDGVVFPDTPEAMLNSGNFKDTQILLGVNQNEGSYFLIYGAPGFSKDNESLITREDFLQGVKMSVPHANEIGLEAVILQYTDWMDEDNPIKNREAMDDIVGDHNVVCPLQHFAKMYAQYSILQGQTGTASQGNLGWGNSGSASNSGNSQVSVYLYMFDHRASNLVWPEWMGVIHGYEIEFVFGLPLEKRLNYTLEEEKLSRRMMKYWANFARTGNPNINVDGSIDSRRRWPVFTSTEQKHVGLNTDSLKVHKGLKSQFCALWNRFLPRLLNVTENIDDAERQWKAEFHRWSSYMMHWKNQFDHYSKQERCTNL
Chain of D(2) dopamine receptor (P14416 whole entry): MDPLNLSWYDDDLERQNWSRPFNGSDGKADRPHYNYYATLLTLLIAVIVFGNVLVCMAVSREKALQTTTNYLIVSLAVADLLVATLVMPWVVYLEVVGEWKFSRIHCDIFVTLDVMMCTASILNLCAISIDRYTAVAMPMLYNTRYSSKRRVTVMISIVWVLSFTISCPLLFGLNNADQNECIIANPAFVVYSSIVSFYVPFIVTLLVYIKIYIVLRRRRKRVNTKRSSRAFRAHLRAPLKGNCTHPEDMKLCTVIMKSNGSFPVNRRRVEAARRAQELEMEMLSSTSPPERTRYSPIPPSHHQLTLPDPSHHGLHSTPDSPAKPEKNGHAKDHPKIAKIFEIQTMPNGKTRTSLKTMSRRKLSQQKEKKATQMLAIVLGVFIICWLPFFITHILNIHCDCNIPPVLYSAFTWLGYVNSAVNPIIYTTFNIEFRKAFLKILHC

| Compound | Ki [5] [nM] | Ki [6] [nM] | Ki [7] [nM] | Ki [8] [nM] | other results |
| --- | --- | --- | --- | --- | --- |
| CC(Oc1cc(Cl)cc(Cl)c1)c1nc(N)nc(N2CCN(C)CC2)n1 (stereo not drawn) | – | – | – | – | IC50 [1]: 3950 nM |
| CCC(Oc1cc(Cl)ccc1Cl)c1nc(N)nc(N2CCN(C)CC2)n1 (stereo not drawn) | – | – | – | – | IC50 [2]: 81300 nM; IC50 [1]: 11200 nM; IC50 [3]: 7400 nM |
| CC(Oc1ccc(Cl)c(Cl)c1)c1nc(N)nc(N2CCN(C)CC2)n1 (stereo not drawn) | – | – | – | – | IC50 [1]: 9520 nM |
| CCCCC(Oc1cccc(Cl)c1Cl)c1nc(N)nc(N2CCN(C)CC2)n1 (stereo not drawn) | – | – | – | – | IC50 [2]: 29900 nM; IC50 [4]: 500 nM; IC50 [3]: 13200 nM |
| CN1CCN(c2nc(N)nc(C(C)(C)Sc3ccccc3Cl)n2)CC1 | 476 | 5920 | 892 | 727 | – |
| CN1CCN(c2nc(N)nc(C(C)(C)Oc3ccccc3Cl)n2)CC1 | 79 | 5630 | 573 | 797 | – |
| COc1ccc(NS(=O)(=O)c2ccc(I)cc2)cc1N1CCN(C)CC1 | – | – | – | – | Emax [9]: 100% |
| CCC(Sc1ccccc1)c1nc(N)nc(N2CCN(C)CC2)n1 (racemic) | 127 | 2470 | 427 | 7270 | – |
| CC(Sc1cc(Cl)ccc1Cl)c1nc(N)nc(N2CCN(C)CC2)n1 (racemic) | 169 | 61000 | – | 4780 | IC50 [1]: 9190 nM |
| CCC(Sc1cccc(Cl)c1Cl)c1nc(N)nc(N2CCNCC2)n1 (racemic) | – | 3320 | 115 | – | – |
| CC(Sc1ccc(Cl)c(Cl)c1)c1nc(N)nc(N2CCN(C)CC2)n1 (racemic) | 152 | 2870 | – | 530 | – |
| CCC(Sc1ccc(Cl)c(Cl)c1)c1nc(N)nc(N2CCN(C)CC2)n1 (racemic) | 181 | 5160 | 547 | 897 | IC50 [1]: 4570 nM; IC50 [4]: 15000 nM |
| CCCC(Sc1cc(Cl)cc(Cl)c1)c1nc(N)nc(N2CCN(C)CC2)n1 (racemic) | 74 | 8630 | 500 | 663 | – |
| CCC(Oc1cccc(Cl)c1Cl)c1nc(N)nc(N2CCNCC2)n1 (racemic) | 179 | 4510 | 118 | – | IC50 [4]: 10000 nM |
| CCC(Sc1cc(Cl)cc(Cl)c1)c1nc(N)nc(N2CCN(C)CC2)n1 (racemic) | 103 | 6040 | 178 | 362 | IC50 [4]: 9800 nM |
| CCCC(Sc1cc(Cl)ccc1Cl)c1nc(N)nc(N2CCN(C)CC2)n1 (racemic) | 9 | 6210 | – | 971 | – |
| CCC(Oc1ccccc1)c1nc(N)nc(N2CCNCC2)n1 (racemic) | 414 | 8150 | 4820 | – | IC50 [2]: 42100 nM; IC50 [3]: 20 nM |
| CCCCC(Sc1cccc(Cl)c1Cl)c1nc(N)nc(N2CCN(C)CC2)n1 (racemic) | 169 | 1800 | 179 | – | IC50 [4]: 9950 nM |
| CCC(Oc1cc(Cl)ccc1Cl)c1nc(N)nc(N2CCNCC2)n1 (racemic) | – | 3720 | 62 | – | – |
| CCC(Sc1cc(Cl)ccc1Cl)c1nc(N)nc(N2CCNCC2)n1 (racemic) | – | 5670 | 188 | – | – |
| CCC(Sc1cc(Cl)ccc1Cl)c1nc(N)nc(N2CCN(C)CC2)n1 (racemic) | – | 5140 | 551 | 1000 | IC50 [4]: 12100 nM |
| CCC(Sc1cccc(Cl)c1Cl)c1nc(N)nc(N2CCN(C)CC2)n1 (racemic) | – | 2560 | 2150 | 879 | – |
| CC(Sc1cc(Cl)cc(Cl)c1)c1nc(N)nc(N2CCN(C)CC2)n1 (racemic) | 103 | 6040 | 178 | 362 | IC50 [1]: 5370 nM |
| CC(=O)Oc1ccccc1C(=O)O [ASPIRIN] | – | – | – | – | IC50 [10]: 17400 nM |
